Laboratory results as given in US20260335310A1, “GEPOTIDACIN FOR USE IN THE TREATMENT OF BACTERIAL PROSTATITIS” (GLAXOSMITHKLINE INTELLECTUAL PROPERTY DEVELOPMENT LIMITED, priority 2022, published 2026).
Like-named read-outs stand apart in the source and are kept apart here.

Columns and labels:
[1] = In vivo microdialysis of unbound gepotidacin in blood, muscle and prostate of healthy and E. coli infected rats; parameters: species or system rat; details: for Kp uu: rat, iv, 20 mg/kg
Description: The example herein describes microdialysis experiments in E. coli infected rats to measure tissue distribution of unbound gepotidacin. In vivo microdialysis experiments simultaneously determined unbound gepotidacin concentrations in rat prostate, muscle, and blood. It is important to understand the tissue distribution of unbound gepotidacin, especially in the target prostate tissue, since gepotidacin must diffuse through capillary membranes to reach the prostate. An assumption that the plasma concentration of gepotidacin represents a suitable surrogate of prostate concentrations, without prostate tissue confirmation, may lead to erroneous conclusions, especially since the pathogen is localized in the prostate.
(§1) An Escherichia coli prostatitis model in rats was obtained as follows. Four days before microdialysis, rats (n=11) were infected with Escherichia coli ATCC 13441 in the prostatic urethra, to induce E. coli prostatitis, at an inoculum of 10^7 CFU/rat. Healthy rats (n=9) were not infected with E. coli as control.
(§2) The day before the experiment, two CMA/20 probes (membrane length 10 mm, Harvard Apparatus, Courtaboeuf France) were inserted into right jugular vein and the right hind leg muscle of healthy and infected rats under anesthesia and analgesic treatment. In parallel, catheters were inserted into the femoral vein and artery to administer gepotidacin intravenously (IV) and to collect blood samples for determination of total plasma gepotidacin concentrations, respectively. The rats were allowed to recover consciousness, and food was withdrawn for 12 hours.
(§3) On the day of the experiment, healthy control and infected rats were re-anesthetized and a CMA/20 Elite probe (membrane length 4 mm) was inserted into the prostate. All probes were connected to infusion pumps and perfused with Ringer containing a calibrator (((R)-1-((4-(((2,3-dihydro-[1,4]oxathiino[2,3-c]pyridin-7-yl)methyl)amino)piperidin-1-yl)methyl)-1,2-dihydro-3H,8H-2a,5,8a-triazaacenaphthylene-3,8-dione; […]) at a flow rate of 0.5 μL/min with Ringer. After an equilibration period, gepotidacin was administered by IV bolus at a dose of 20 mg/kg. Blood, muscle, and prostate dialysates were collected every 10 minutes for 90 minutes, and then every 30 minutes […]. Seven blood samples were also collected for analysis of gepotidacin pharmacokinetics in total plasma. Gepotidacin concentrations were measured in dialysates and in plasma by LC-MS/MS.
Pharmacokinetic (PK) parameters were determined in each individual rat by a noncompartmental approach according to standard procedures and with the software Phoenix WinNonLin 7. (Certara, Princeton, NJ) Total unbound body clearance (CLu) was calculated as CLu=dose/AUCu,blood, where AUCu,blood is the total area under the unbound blood concentration-versus-time curve from zero to infinity, equal to the area under the curve from zero to the last measured concentration AUC0-last,u,blood added to the area under the curve from the last measured concentration to infinity AUClast-infinity,u,blood. AUC0-last,u,blood was calculated by linear-logarithmic trapezoidal method. AUClast-infinity,u,blood the area remaining under the curve after the last measured concentration, C(last)u,blood was determined from C(last)u,blood/keblood. The elimination rate constant (keblood) and its corresponding half-life (t1/2,blood) were estimated by least squares fit of the data points (log concentration-time). The linear-logarithmic trapezoidal method was used to compute the area under the unbound blood concentration-versus-time moment curve AUMC0-last,u,blood from zero to the last measured concentration. AUMClast-infinity,u,blood the area remaining under the curve after the last measured concentration was determined from: tlast×C(last)u,blood/keblood+C(last)u,blood/keblood^2. The mean residence time from zero to infinity, MRT0-infinity was determined from AUMC0-infinity,u,blood/AUC0-infinity,u,blood. […]

[2] = Total plasma pharmacokinetics of gepotidacin in healthy and E. coli infected rats; type: in vivo, rat; details: IV bolus 20 mg/kg; for Vd / half-life / clearance: rat, plasma, iv, 20 mg/kg; for clearance: read-out: CLt,plasma
Description: as §1, §2, §3
Pharmacokinetic (PK) parameters were determined in each individual rat by a noncompartmental approach according to standard procedures and with the software Phoenix WinNonLin 7. (Certara, Princeton, NJ) Total unbound body clearance (CLu) was calculated as CLu=dose/AUCu,blood, where AUCu,blood is the total area under the unbound blood concentration-versus-time curve from zero to infinity, equal to the area under the curve from zero to the last measured concentration AUC0-last,u,blood added to the area under the curve from the last measured concentration to infinity AUClast-infinity,u,blood. AUC0-last,u,blood was calculated by linear-logarithmic trapezoidal method. AUClast-infinity,u,blood the area remaining under the curve after the last measured concentration, C(last)u,blood was determined from C(last)u,blood/keblood. The elimination rate constant (keblood) and its corresponding half-life (t1/2,blood) were estimated by least squares fit of the data points (log concentration-time). The linear-logarithmic trapezoidal method was used to compute the area under the unbound blood concentration-versus-time moment curve AUMC0-last,u,blood from zero to the last measured concentration. AUMClast-infinity,u,blood the area remaining under the curve after the last measured concentration was determined from: tlast×C(last)u,blood/keblood+C(last)u,blood/keblood^2. The mean residence time from zero to infinity, MRT0-infinity was determined from AUMC0-infinity,u,blood/AUC0-infinity,u,blood. The volume of distribution (VSSu) was obtained from MRT0-infinity×CLu. The AUCu and t1/2,u in tissues were also estimated by the same procedure.

[3] = healthy rats (n = 9), blood, unbound, IV bolus 20 mg/kg
[4] = healthy rats (n = 9), muscle, unbound, IV bolus 20 mg/kg
[5] = healthy rats (n = 9), prostate, unbound, IV bolus 20 mg/kg
[6] = infected rats (n = 11; E. coli ATCC 13441 prostatitis), blood, unbound, IV bolus 20 mg/kg
[7] = infected rats (n = 11; E. coli ATCC 13441 prostatitis), muscle, unbound, IV bolus 20 mg/kg
[8] = infected rats (n = 11; E. coli ATCC 13441 prostatitis), prostate, unbound, IV bolus 20 mg/kg
[9] = prostatitis (infected) rats, FIG. 1C-1D
[10] = infected rats (n = 11; E. coli ATCC 13441 prostatitis)

## O=c1ccc2ncc(=O)n3c2n1C[C@H]3CN1CCC(NCc2cc3c(cn2)OCCC3)CC1 [gepotidacin, (2R)-2-({4-[(3,4-dihydro-2/pyrano[2,3-c]pyridin-6-ylmethyl)amino]-1-piperidinyl}methyl)-1,2-dihydro-3H,8/2a,5,8a-triazaacenaphthylene-3,8-dione]
[1]; healthy control rats
  Half-life and Cmax,u in blood, muscle, and prostate, comparison of tissues: similar
[1]; healthy control rats, FIG. 1A, 1B
  Unbound concentration time profile in blood: biphasic
[1]; healthy control rats, with the exception of the first time point, FIG. 1A
  Concentration profiles in prostate and muscle relative to blood: almost superimposed with blood concentrations
[1]; [3]
  CLu (total unbound body clearance): 44.4 ± 5.1 mL/min/kg
  Cmax,u: 10300 ± 2600 ng/mL
  VSSu (volume of distribution): 3.967 ± 0.557 L/kg
  t1/2,u: 1.3 ± 0.317 h
[1]; [4]
  Cmax,u: 8600 ± 2500 ng/mL
  t1/2,u: 1.3 ± 0.15 h
[1]; [5]
  Cmax,u: 8200 ± 1900 ng/mL
  t1/2,u: 1.13 ± 0.183 h
[1]; infected rats
  Cmax in prostate, infected compared to healthy rats: slightly lower compared to healthy rats
  Half-lives, comparison of blood, muscle, and prostate: the same between blood, muscle, and prostate
[1]; [6]
  CLu (total unbound body clearance): 35.8 ± 5.5 mL/min/kg
  Cmax,u: 12300 ± 1900 ng/mL
  VSSu (volume of distribution): 3.344 ± 0.59 L/kg
  t1/2,u: 1.43 ± 0.383 h
[1]; [7]
  Cmax,u: 9900 ± 3800 ng/mL
  t1/2,u: 1.28 ± 0.367 h
[1]; [8]
  Cmax,u: 6600 ± 2700 ng/mL
  t1/2,u: 1.38 ± 0.15 h
[1]; infected vs healthy rats, p>0.05, Wilcoxon test, R software
  Muscle/blood and prostate/blood AUCu ratios, infected compared to healthy rats: not significantly different
[1]; [9]
  Unbound concentration time profile in blood: biphasic
  Unbound concentrations in prostate relative to blood: slightly lower than in blood
[1]; muscle, healthy rats (n = 9), unbound, IV bolus 20 mg/kg, read-out: AUCu muscle/blood
  Kp uu: 1.06 ± 0.17
[1]; muscle, infected rats (n = 11; E. coli ATCC 13441 prostatitis), unbound, IV bolus 20 mg/kg, read-out: AUCu muscle/blood
  Kp uu: 1.03 ± 0.13
[1]; muscle/blood and prostate/blood, healthy control rats, muscle/blood and prostate/blood, read-out: AUCu ratios
  Kp uu: ~1
[1]; prostate, healthy rats (n = 9), unbound, IV bolus 20 mg/kg, read-out: AUCu prostate/blood
  Kp uu: 0.89 ± 0.17
[1]; prostate, infected rats (n = 11; E. coli ATCC 13441 prostatitis), unbound, IV bolus 20 mg/kg, read-out: AUCu prostate/blood
  Kp uu: 0.78 ± 0.21
[2]; healthy rats (n = 9)
  AUC: 6750 ± 950 ng·h/mL
  Vd: 4.26 ± 0.851 L/kg
  half-life: 1.2 ± 0.19 h
  clearance: 50.3 ± 7.1 mL/min/kg
[2]; [10]
  AUC: 7870 ± 2380 ng·h/mL
  Vd: 4.02 ± 0.997 L/kg
  half-life: 1.27 ± 0.165 h
  clearance: 45.6 ± 12.8 mL/min/kg
